Assay results from US9249129B2, “Morpholino substituted urea derivatives as mTOR inhibitors” (CELLZOME LIMITED, priority 2010, dated 2016).
Like-named read-outs stand apart in the source and are kept apart here.

Columns and labels:
PI3Kβ = molecular target: T1, PI3Kβ (Homo sapiens, UniProt P42338); assay: kinobeads assay, PI3K beta (dot blot detection); assay type: binding; settings: Table 4, read-out: Inhibition values (IC50) PI3Kb
T1 construct: endogenous in cells; host or cells: Jurkat cells (ATCC TIB-152) lysate, the only lysate described
T1 sequence (P42338 whole entry): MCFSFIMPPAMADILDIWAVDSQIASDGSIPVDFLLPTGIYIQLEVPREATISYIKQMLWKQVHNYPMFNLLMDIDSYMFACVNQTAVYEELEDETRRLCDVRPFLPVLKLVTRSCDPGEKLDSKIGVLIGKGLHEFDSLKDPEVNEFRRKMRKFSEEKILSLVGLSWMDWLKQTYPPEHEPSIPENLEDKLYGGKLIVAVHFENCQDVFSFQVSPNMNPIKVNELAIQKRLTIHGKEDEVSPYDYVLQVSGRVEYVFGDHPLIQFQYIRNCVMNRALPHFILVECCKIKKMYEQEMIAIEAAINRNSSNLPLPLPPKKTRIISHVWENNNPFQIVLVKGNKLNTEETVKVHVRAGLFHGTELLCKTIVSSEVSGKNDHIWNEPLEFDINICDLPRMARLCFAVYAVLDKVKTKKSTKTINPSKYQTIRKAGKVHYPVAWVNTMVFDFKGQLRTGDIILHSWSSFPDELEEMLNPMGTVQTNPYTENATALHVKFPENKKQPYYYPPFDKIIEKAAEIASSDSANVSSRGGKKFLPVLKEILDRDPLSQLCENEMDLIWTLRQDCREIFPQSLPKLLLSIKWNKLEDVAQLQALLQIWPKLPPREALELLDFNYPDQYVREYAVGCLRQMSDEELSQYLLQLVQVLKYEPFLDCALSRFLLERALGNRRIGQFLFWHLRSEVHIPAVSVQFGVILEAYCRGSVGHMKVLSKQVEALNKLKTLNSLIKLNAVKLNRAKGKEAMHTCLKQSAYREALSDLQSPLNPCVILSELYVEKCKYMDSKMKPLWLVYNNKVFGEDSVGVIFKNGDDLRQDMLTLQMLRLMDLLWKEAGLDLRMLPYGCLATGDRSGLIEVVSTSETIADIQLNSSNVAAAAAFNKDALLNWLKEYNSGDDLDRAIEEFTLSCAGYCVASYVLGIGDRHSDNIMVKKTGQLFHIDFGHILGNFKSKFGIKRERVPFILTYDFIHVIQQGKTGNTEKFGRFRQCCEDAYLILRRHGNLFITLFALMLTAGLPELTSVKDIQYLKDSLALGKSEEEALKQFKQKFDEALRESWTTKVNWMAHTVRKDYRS
T1 sequence (P27986 whole entry partner): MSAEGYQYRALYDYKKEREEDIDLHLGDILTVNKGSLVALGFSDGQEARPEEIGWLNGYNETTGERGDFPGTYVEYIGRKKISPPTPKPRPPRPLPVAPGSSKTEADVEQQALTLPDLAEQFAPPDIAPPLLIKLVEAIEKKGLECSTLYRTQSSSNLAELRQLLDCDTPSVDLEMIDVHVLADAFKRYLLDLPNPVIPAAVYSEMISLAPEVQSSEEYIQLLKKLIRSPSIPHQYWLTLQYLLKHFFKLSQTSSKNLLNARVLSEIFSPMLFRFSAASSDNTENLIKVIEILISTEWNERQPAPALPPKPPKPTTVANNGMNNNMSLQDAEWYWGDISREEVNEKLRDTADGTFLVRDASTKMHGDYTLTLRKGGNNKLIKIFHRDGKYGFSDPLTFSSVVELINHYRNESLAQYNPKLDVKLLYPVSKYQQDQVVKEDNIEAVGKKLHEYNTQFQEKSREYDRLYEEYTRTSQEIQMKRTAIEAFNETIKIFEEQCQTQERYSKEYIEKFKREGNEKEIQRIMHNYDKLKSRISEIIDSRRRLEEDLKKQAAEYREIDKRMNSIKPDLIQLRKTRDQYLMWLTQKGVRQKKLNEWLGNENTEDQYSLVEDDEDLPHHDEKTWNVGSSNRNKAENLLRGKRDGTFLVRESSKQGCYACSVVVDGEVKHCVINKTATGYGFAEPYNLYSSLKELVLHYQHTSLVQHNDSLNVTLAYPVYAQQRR

PI3Kα = molecular target: T2, PI3Kα (Homo sapiens, UniProt P42336); assay: kinobeads assay, PI3K alpha (dot blot detection); assay type: binding; settings: Table 4, read-out: Inhibition values (IC50) PI3Ka
T2 construct: endogenous in cells; host or cells: Jurkat cells (ATCC TIB-152) lysate, the only lysate described
T2 sequence (P42336 whole entry): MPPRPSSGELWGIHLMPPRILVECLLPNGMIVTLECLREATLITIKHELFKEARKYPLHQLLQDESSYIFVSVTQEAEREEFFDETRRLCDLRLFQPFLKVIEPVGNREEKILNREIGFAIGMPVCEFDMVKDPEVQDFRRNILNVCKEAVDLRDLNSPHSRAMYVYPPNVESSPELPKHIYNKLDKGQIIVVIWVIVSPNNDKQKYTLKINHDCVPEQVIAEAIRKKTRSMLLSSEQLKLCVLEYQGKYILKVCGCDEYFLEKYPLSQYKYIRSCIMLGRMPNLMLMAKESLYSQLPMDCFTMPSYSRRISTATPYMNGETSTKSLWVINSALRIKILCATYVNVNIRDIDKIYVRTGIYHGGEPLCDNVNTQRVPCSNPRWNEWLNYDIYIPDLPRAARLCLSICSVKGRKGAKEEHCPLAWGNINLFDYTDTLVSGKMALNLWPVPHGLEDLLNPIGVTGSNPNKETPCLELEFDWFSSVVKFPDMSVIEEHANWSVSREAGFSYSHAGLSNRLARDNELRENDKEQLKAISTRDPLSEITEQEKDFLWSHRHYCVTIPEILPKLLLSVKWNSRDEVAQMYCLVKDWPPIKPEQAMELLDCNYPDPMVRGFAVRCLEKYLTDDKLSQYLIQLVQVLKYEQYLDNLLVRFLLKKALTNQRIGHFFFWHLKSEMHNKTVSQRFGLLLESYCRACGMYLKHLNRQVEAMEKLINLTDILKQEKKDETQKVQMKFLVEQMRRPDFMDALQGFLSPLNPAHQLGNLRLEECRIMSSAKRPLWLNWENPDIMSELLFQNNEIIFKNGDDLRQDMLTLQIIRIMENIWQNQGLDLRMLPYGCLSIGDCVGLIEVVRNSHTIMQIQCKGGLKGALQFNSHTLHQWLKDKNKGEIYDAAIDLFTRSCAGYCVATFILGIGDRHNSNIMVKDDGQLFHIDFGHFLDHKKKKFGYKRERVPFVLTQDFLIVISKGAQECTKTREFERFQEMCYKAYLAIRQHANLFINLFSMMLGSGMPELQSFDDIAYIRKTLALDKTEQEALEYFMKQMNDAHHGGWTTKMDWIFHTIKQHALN
T2 sequence (P27986 whole entry partner): as the sequence (P27986 whole entry partner) above

[1] = tested on: S6RP serine-240/244 phosphorylation in HEK293T/17 cells; assay: In vitro phospho-S6 cellular assay (pS6RP S240/244); assay type: cell-based; settings: Homo sapiens, Table 6, 2 hours, S6RP Ser240/244, read-out: pS6 (phospho-S6 cell assay data, activity level)
Source text: In Vitro Phospho-S6 and Phospho-Akt Cellular Assay
Activation of mTOR signaling results in phosphorylation of several downstream targets. In cells, mTOR exists in two different protein complexes. The mTOR Complex-1 (mTORC1) phosphorylates and activates S6 Kinase 1 (S6K1) and S6 Kinase 2 (S6K2) (also known as p70S6K) which then phosphorylate S6 Ribosomal Protein (S6RP) (also known as RPS6). S6RP is phosphorylated on serine 235, serine 236, serine 240 and serine 244 by both pS6K1 and pS6K2. The mTOR Complex-2 (mTORC2) phosphorylates AKT on serine 473 which activates the AKT signaling pathway.
The assay measures a test compound's inhibition of S6RP serine-240/244 phosphorylation and inhibition of Akt serine-473 phosphorylation in human embryonic kidney derived HEK293T/17 cells (ATCC CRL-11268).
The HEK293T/17 cell line is maintained in DMEM media (Invitrogen catalogue number 41965-039) supplemented with 10% FCS at 37° C. in a 5% CO2 humidified incubator.
Cells are seeded in 96-well plates at 40,000 cells/well (pS6RP S240/244 assay) or 80,000 cells/well (pAkt 5473 assay) in 90 μl growth media (DMEM, 2% FCS). Plates are incubated for 1 hour in a humidified incubator to allow the cells to adhere. Cells are treated with 8 concentrations of test compounds or DMSO alone for controls (final DMSO concentration 0.1%) and incubated at 37° C. for 2 hours. Then 20 μl of 5× concentrated lysis buffer (750 mM NaCl, 100 mM Tris pH7.4, 5 mM EDTA, 5 mM EGTA, 5% Triton X-100) is added, plates are sealed and incubated for 15 minutes at 4° C. with gentle shaking. After cell lysis, 25 μl cell lysate is transferred to a MesoScale plate coated with an antibody to pS6RP Ser240/244 (MesoScale Discovery K150DGD-3) or an antibody to pAkt Ser 473 (MesoScale Discovery K151DGD-3). Plates have been blocked before by incubation with 150 μl MesoScale Discovery Blocking Solution-A for 1 hour at room temperature followed by washing with 150 μl 1× Tris wash buffer per well. After the transfer of the cell lysate to the MSD plate, the pS6RP (or pAkt) protein is captured on the coated antibody by incubation at room temperature for 1 hour with gentle shaking. After the capture step the plate is washed three times with 150 μl of 1× Tris wash buffer per well. Then 25 μl detection antibody conjugated with a Sulfo-Tag is added and incubated for 1 hour at room temperature with gentle shaking. Subsequently the antibody solution is removed and the plate is washed 3 times with 150 μl 1× Tris wash buffer per well and 150 μl Read buffer is added. The plates are analysed on a MSD 2400 Plate Reader (MesoScale Discovery). Data analysis is performed using nonlinear regression for a sigmoidal dose-response with a variable slope.

mTOR = molecular target: T3, mTOR (Homo sapiens, UniProt P42345); assay: mTOR kinobeads assay (dot blot detection); assay type: binding
T3 construct: endogenous in cells; host or cells: Jurkat cells (ATCC TIB-152, clone E6-1), lysate
Description: (§1) The compounds of the present invention as described were tested in the mTOR kinobeads assay as described below. Briefly, test compounds (at various concentrations) and the affinity matrix (1:1 mixture of beads with immobilized phenylthiazole ligand 1 and beads with immobilized phenylmorpholin-chromen ligand; WO 2009/098021) were added to cell lysate aliquots and allowed to bind to the proteins in the lysate sample. After the incubation time the beads with captured proteins were separated from the lysate. Bound proteins were then eluted and the presence of mTOR, PI3K delta (PI3 Kd) and DNA-dependent protein kinase (DNA-PK) was detected and quantified using a specific antibody in a dot blot procedure and the Odyssey infrared detection system. Dose response curves for individual kinases were generated and IC50 values calculated. Kinobeads assays for PI3 kinases (WO-A 2008/015013) and for kinase selectivity profiling (WO 2009/098021) have been previously described.
(§2) The affinity matrix (beads with immobilized phenylmorpholin-chromen ligand) was washed two times with 15 ml of 1×DP buffer containing 0.2% NP40 (IGEPAL® CA-630, Sigma, #13021) and then resupended in 5.5 ml of 1×DP buffer containing 0.2% NP40 (10% beads slurry).
(§3) 5×DP buffer: 250 mM Tris-HCl pH 7.4, 25% Glycerol, 7.5 mM MgCl2, 750 mM NaCl, 5 mM Na3VO4, filter the 5×-lysis buffer through 0.22 μm filter and store in aliquots at −80° C. The 5×DP buffer is diluted to 1×DP buffer containing 1 mM DTT and 25 mM NaF.
(§4) Stock solutions of test compounds were prepared in DMSO. In a 96 well plate 30 μl solution of diluted test compounds at 5 mM in DMSO were prepared. Starting with this solution a 1:3 dilution series (9 steps) was prepared. For control experiments (no test compound) a buffer containing 2% DMSO was used. Compound CZC00018052 served as a positive control (PI-103; Calbiochem catalogue number 528100).
(§5) Jurkat cells (ATCC catalogue number TIB-152 Jurkat, clone E6-1) were grown in 1 litre Spinner flasks (Integra Biosciences, #182101) in suspension in RPMI 1640 medium (Invitrogen, #21875-034) supplemented with 10% Fetal Bovine Serum (Invitrogen) at a density between 0.15×10^6 and 1.2×10^6 cells/ml. Cells were harvested by centrifugation, washed once with 1×PBS buffer (Invitrogen, #14190-094) and cell pellets were frozen in liquid nitrogen and subsequently stored at −80° C.
(§6) Jurkat cells were homogenized in a Potter S homogenizer in lysis buffer: 50 mM Tris-HCl, 0.8% NP40, 5% glycerol, 150 mM NaCl, 1.5 mM MgCl2, 25 mM NaF, 1 mM sodium vanadate, 1 mM DTT, pH 7.5. One complete EDTA-free tablet (protease inhibitor cocktail, Roche Diagnostics, 1873580) per 25 ml buffer was added. The material was dounced 10 times using a mechanized POTTER S, transferred to 50 ml falcon tubes, incubated for 30 minutes on ice and spun down for 10 min at 20,000 g at 4° C. (10,000 rpm in Sorvall SLA600, precooled). The supernatant was transferred to an ultracentrifuge (UZ)-polycarbonate tube (Beckmann, 355654) and spun for 1 hour at 100.000 g at 4° C. (33.500 rpm in Ti50.2, precooled). The supernatant was transferred again to a fresh 50 ml falcon tube, the protein concentration was determined by a Bradford assay (BioRad) and samples containing 50 mg of protein per aliquot were prepared. The samples were immediately used for experiments or frozen in liquid nitrogen and stored frozen at −80° C.
(§7) Jurkat cell lysate (approximately 50 mg protein per plate) was thawed in a water bath at room temperature and then kept on ice. To the thawed cell lysate 1×DP 0.8% NP40 buffer containing protease inhibitors (1 tablet for 25 ml buffer; EDTA-free protease inhibitor cocktail; Roche Diagnostics 1873580) was added in order to reach a final protein concentration of 5 mg/ml total protein. The diluted cell lysate was stored on ice. […]

PI3K delta (PI3Kd) = molecular target: T4, PI3K delta (PI3Kd) (Homo sapiens, UniProt O00329); assay: kinobeads assay, PI3K delta (dot blot detection); assay type: binding
T4 construct: endogenous in cells; host or cells: Jurkat cells (ATCC TIB-152, clone E6-1), lysate
T4 sequence (O00329 whole entry): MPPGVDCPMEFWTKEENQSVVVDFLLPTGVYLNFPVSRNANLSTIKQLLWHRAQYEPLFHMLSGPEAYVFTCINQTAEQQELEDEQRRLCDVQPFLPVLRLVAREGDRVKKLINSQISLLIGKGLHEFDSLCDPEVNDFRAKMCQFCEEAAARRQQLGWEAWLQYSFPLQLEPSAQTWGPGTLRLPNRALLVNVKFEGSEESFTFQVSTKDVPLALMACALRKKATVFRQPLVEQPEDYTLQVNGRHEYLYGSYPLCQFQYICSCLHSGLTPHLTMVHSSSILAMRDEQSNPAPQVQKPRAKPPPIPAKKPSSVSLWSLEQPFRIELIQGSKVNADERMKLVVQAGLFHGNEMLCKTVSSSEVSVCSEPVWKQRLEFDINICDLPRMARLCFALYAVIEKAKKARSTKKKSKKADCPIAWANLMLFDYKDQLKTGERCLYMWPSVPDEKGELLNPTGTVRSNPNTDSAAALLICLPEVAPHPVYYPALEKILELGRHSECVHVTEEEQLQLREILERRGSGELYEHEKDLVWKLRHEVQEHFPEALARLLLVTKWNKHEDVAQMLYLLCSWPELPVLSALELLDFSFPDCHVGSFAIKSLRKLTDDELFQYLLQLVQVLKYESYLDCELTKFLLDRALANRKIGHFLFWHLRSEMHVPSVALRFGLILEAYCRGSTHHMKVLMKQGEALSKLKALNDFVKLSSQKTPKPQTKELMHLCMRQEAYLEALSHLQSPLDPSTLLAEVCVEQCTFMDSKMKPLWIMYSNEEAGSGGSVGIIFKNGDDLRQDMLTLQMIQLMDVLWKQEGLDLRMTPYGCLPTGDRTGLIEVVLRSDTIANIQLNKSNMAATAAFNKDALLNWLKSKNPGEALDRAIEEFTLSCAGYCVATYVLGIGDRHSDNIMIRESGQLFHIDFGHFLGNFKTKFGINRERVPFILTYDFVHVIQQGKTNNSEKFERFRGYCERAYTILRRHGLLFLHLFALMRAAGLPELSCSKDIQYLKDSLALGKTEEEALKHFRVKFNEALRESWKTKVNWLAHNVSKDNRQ
T4 sequence (P27986 whole entry partner): as the sequence (P27986 whole entry partner) above
Description: as §1, §2, §3, §4, §5, §6, §7

PI3Kγ = molecular target: T5, PI3Kγ (Homo sapiens, UniProt P48736); assay: kinobeads assay, PI3K gamma (dot blot detection); assay type: binding; settings: Table 4, read-out: Inhibition values (IC50) PI3Kg
T5 construct: endogenous in cells; host or cells: Jurkat cells (ATCC TIB-152) lysate, the only lysate described
T5 sequence (P48736 whole entry): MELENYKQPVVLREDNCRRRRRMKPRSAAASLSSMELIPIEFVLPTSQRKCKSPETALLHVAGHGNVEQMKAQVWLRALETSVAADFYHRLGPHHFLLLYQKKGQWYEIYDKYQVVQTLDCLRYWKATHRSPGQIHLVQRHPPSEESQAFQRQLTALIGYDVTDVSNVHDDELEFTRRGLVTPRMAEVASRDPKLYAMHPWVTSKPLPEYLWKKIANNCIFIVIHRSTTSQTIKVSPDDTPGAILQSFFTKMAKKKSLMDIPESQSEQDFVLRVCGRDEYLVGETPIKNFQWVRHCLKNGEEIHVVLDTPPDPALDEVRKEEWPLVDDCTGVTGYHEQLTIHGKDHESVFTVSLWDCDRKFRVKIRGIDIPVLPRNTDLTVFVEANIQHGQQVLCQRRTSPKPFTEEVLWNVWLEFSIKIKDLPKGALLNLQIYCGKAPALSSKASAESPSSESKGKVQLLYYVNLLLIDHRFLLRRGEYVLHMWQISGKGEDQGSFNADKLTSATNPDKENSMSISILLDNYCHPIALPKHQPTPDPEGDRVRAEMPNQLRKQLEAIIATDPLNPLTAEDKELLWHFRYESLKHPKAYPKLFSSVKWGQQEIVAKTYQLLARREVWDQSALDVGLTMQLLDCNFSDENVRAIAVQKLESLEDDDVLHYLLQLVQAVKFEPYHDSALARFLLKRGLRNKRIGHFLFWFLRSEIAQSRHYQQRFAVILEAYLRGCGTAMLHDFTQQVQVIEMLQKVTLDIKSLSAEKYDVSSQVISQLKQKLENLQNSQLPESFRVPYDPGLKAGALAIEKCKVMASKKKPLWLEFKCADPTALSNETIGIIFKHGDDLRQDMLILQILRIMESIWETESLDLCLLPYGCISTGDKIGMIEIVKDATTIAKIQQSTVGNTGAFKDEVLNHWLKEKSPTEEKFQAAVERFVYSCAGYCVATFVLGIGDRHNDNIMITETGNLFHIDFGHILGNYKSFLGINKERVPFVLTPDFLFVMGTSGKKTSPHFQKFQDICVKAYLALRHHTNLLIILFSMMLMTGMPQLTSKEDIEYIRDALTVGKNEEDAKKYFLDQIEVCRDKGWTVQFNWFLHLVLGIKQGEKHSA

[2] = molecular target: T6, DNA-dependent protein kinase (DNA-PK) (Homo sapiens, UniProt P78527); assay: kinobeads assay, DNA-PK (dot blot detection); assay type: binding
T6 construct: endogenous in cells; host or cells: Jurkat cells (ATCC TIB-152, clone E6-1), lysate
Description: as §1, §2, §3, §4, §5, §6, §7

[3] = Table 2, Jurkat cell lysate, read-out: Inhibition values (IC50) mTor
[4] = Table 4, read-out: Inhibition values (IC50) mTOR
[5] = Table 2, Jurkat cell lysate, read-out: Inhibition values (IC50) PI3Kd
[6] = Table 4, read-out: Inhibition values (IC50) PI3Kd
[7] = Table 2, Jurkat cell lysate, read-out: Inhibition values (IC50) DNAPK
[8] = Table 4, read-out: Inhibition values (IC50) DNAPK

Row | Structure (SMILES) | IC50 (PI3Kβ) | IC50 (PI3Kα) | IC50 [1] | IC50 (mTOR; [3]) | IC50 (mTOR; [4]) | IC50 (PI3K delta (PI3Kd); [5]) | IC50 (PI3K delta (PI3Kd); [6]) | IC50 (PI3Kγ) | IC50 [2, 7] | IC50 [2, 8]
1 | C[C@H]1COCCN1c1nc(-c2ccc(NC(=O)NC3CC3)cc2)cc(-c2cccnc2[S+](C)[O-])n1 (stereo partly drawn) [Example 45, 1-cyclopropyl-3-(4-(2-((S)-3-methylmorpholino)-6-(2-(methylsulfinyl)pyridin-3-yl)pyrimidin-4-yl)phenyl)urea] | 1 to 10 µM | 1 to 10 µM | 0.1 to 1 µM | < 0.1 µM | < 0.1 µM | 1 to 10 µM | 1 to 10 µM | ≥ 10 µM | ≥ 10 µM | ≥ 10 µM
2 | O=C(NCC(F)F)Nc1ccc(-c2nccc(N3CC4CCC(C3)O4)n2)cc1 [Example 51, 1-(4-(4-(8-oxa-3-azabicyclo[3.2.1]octan-3-yl)pyrimidin-2-yl)phenyl)-3-(2,2-difluoroethyl)urea] | ≥ 10 µM | ≥ 10 µM | 0.1 to 1 µM | 0.1 to 1 µM | 0.1 to 1 µM | ≥ 10 µM | ≥ 10 µM | ≥ 10 µM | 1 to 10 µM | 1 to 10 µM
3 | C[C@H]1COCCN1c1cc(-c2cc(F)ccc2S(C)(=O)=O)nc(-c2ccc(NC(=O)NCCO)cc2F)n1 [Example 72, (S)-1-(3-fluoro-4-(4-(5-fluoro-2-(methylsulfonyl)phenyl)-6-(3-methylmorpholino)pyrimidin-2-yl)phenyl)-3-(2-hydroxyethyl)urea] | ≥ 10 µM | ≥ 10 µM | 0.1 to 1 µM | 0.1 to 1 µM | 0.1 to 1 µM | ≥ 10 µM | ≥ 10 µM | ≥ 10 µM | ≥ 10 µM | ≥ 10 µM
4 | CNC(=O)Nc1ccc(-c2ccnc(N3CCOCC3)n2)cc1 [Example 30, 1-methyl-3-(4-(2-morpholinopyrimidin-4-yl)phenyl)urea] | 1 to 10 µM | 1 to 10 µM | 1 to 10 µM | 1 to 10 µM | 1 to 10 µM | 1 to 10 µM | 1 to 10 µM | ≥ 10 µM | 1 to 10 µM | 1 to 10 µM
5 | C[C@H]1COCCN1c1cc(-c2ccncc2)nc(-c2ccc(NC(=O)NC3CC3)cc2)n1 [Example 25, (S)-1-cyclopropyl-3-(4-(4-(3-methylmorpholino)-6-(pyridin-4-yl)pyrimidin-2-yl)phenyl)urea] | ≥ 10 µM | ≥ 10 µM | 0.1 to 1 µM | 0.1 to 1 µM | 0.1 to 1 µM | ≥ 10 µM | ≥ 10 µM | ≥ 10 µM | ≥ 10 µM | ≥ 10 µM
6 | C[C@H]1COCCN1c1cc(-c2cccnc2)nc(-c2ccc(NC(=O)NC3CC3)cc2)n1 [Example 3, (S)-1-cyclopropyl-3-(4-(4-(3-methylmorpholino)-6-(pyridin-3-yl)pyrimidin-2-yl)phenyl)urea] | ≥ 10 µM | ≥ 10 µM | < 0.1 µM | 0.1 to 1 µM | 0.1 to 1 µM | ≥ 10 µM | ≥ 10 µM | ≥ 10 µM | ≥ 10 µM | ≥ 10 µM
7 | CNC(=O)Nc1ccc(-c2nccc(N3CCOC[C@@H]3C)n2)cc1 [Example 34, (S)-1-methyl-3-(4-(4-(3-methylmorpholino)pyrimidin-2-yl)phenyl)urea] |  |  | 0.1 to 1 µM | 1 to 10 µM | 1 to 10 µM | ≥ 10 µM | ≥ 10 µM |  | ≥ 10 µM | ≥ 10 µM
8 | CC(=O)NCCNC(=O)Nc1ccc(-c2cc(-c3cc(F)ccc3S(C)(=O)=O)nc(N3CCOC[C@@H]3C)n2)cc1 [Example 85, (S)—N-(2-(3-(4-(6-(5-fluoro-2-(methylsulfonyl)phenyl)-2-(3-methylmorpholino)pyrimidin-4-yl)phenyl)ureido)ethyl)acetamide] | ≥ 10 µM | ≥ 10 µM |  |  | 1 to 10 µM |  | ≥ 10 µM | ≥ 10 µM |  | ≥ 10 µM
9 | C[C@H]1COCCN1c1cc(-c2cncc(S(C)(=O)=O)c2)nc(-c2ccc(NC(=O)NC3CC3)cc2)n1 [Example 22, (S)-1-cyclopropyl-3-(4-(4-(3-methylmorpholino)-6-(5-(methylsulfonyl)pyridin-3-yl)pyrimidin-2-yl)phenyl)urea] |  |  | 0.1 to 1 µM | 1 to 10 µM | 1 to 10 µM | ≥ 10 µM | ≥ 10 µM |  | ≥ 10 µM | ≥ 10 µM
